Test results: patent publication US4879382A, “Pyrido(3,4-f)pyrrolo(1,2-b)(1,2,5)triazepines” (Hoechst-Roussel Pharmaceuticals, Inc., priority 1988, dated 1989)

Experiments:
[1] = phenyl-p-quinone writhing assay (analgesic activity); type: in vivo, mice (Charles River, CD-1); conditions: mice
Experimental: The compounds of this invention are useful as analgesic agents due to their ability to alleviate pain in mammals. The procedure employed to determine analgetic utility is a modification of the phenyl-p-quinone writhing assay in mice, a standard assay for analgetic activity [Proc. Soc. Exptl. Med., 95 729 (1957)]. Pursuant to the modified procedure phenyl-p-benzoquinone (Eastman, 12.5 mg) is dissolved in 5 ml of 95% ethanol and the solution is diluted to a total volume of 100 ml with distilled water. The solution is administered to the subject mice intraperitoneally at a dose of 10 ml per kg of body weight. A characteristic "writhe", an inward rotation of one or more feet with twisting and turning of the trunk, drawing in of the abdominal wall, lordosis and arching of the back, is produced.
A total of 28 male mice (Charles River, CD-1), weighing 18 to 30 grams, are employed for a time response. The subject animals receive food and water ad libitum. Test compounds are dissolved in distilled water, or suspended in distilled water containing one drop of a suitable surfactant, such as Tween-80.
Four groups of five animals (20 animals) are given the test compound subcutaneously (s.c.) or perorally (p.o.) at 15, 30, 45 and 60 minutes prior to administration of the phenyl-p-benzoquinone. A control group (2 animals per group) receive an equal volume of the vehicle. After the administration of the phenyl-p-benzoquinone, the mice are placed separately in one liter beakers, and after five minutes, are observed for ten minutes. The number of writhes for each animal is recorded. Thefollowing formula is used to compute the percent inhibition: [formula]
A dose range determination is run in the same manner as the time response except 10 animals per group are tested at the peak time of test drug activity. Fifty animals, 4 test drug groups, and a vehicle control are employed. Animals are dose and tested in a randomized manner. The time period with the greatest percent of inhibition is considered the peak time.

[2] = adjuvant-induced polyarthritis syndrome in rats assay (antiinflammatory activity); type: in vivo, rats (Charles River-Wistar Lewis); conditions: Rattus norvegicus, po, 504 h, read-out: Non-Injected Paw ED50
Experimental: Several of the compounds of this invention have utility as antiinflammatory agents. Antiinflammatory activity was measured pursuant to the adjuvant-induced polyarthritis syndrome in rats assay by a procedure similar to that described by C. M. Pearson and F. D. Wood, Arthritis and Rheumatism, 2, 440 (1959).
Groups of 10 male Charles River-Wistar Lewis rats weighing 150 to 175 g were individually housed and maintained on a regular rat chow diet. Water was given ad libitum. The adjuvant was prepared by suspending 75 mg of Mycobacterium butyricum (Difco Laboratories, Detroit, Mich.) in 10 ml of white paraffin oil with continuous stirring for 2 hours at room temperature prior to administration. Test compounds are prepared by suspending the drug in water, adding one drop of Tween 80 per 10 ml of suspension, and homogenizing. The adjuvant suspension (0.1 ml) was injected into the footpad of the left hind paw of the rat. Test compound suspensions were administered orally (10 ml/kg) the day before adjuvant suspension injection and the administration was continued daily for 21 days. […] Injected and non-injected paw volumes were determined on the day the adjuvant suspension was given, and on subsequent days thereafter (usually days 5, 10, 18, and 21) by the method of C. […]
The percent inhibition of paw volume (injected and non-injected paw) were calculated by the following formula: [formula] […]

[3] = dark avoidance assay (memory enhancing activity); type: in vivo; conditions: mice
Experimental: Pursuant to the dark avoidance assay, mice are tested for their ability to remember an unpleasant stimulus for a period of 24 hours. A mouse is placed in a chamber that contains a dark compartment; a strong incandescent light drives it to the dark compartment, where an electric shock is administered through metal plates on the floor. The animal is removed from the testing apparatus and tested again, 24 hours later, for the ability to remember the electric shock.

[4] = tetrabenazine induced ptosis assay (antidepressant activity); type: in vivo, mice (Charles River, CD-1); conditions: mice; for ED50: Mus musculus, ip, dose for 50% inhibition of tetrabenazine-induced ptosis
Experimental: Several of the compounds of this invention are also useful as antidepressants by virtue of their ability to elicit an antidepressant response in mammals. Antidepressant activity is determined by the tetrabenazine induced ptosis assay in mice, [International Journal of Neuropharmacology, 8, 72 (1969], a standard assay for the determination of antidepressant activity. […] Tetrabenazine methanesulfonate (76.78% as the free base) is dissolved in distilled water and the concentration of the solution is adjusted so that the dose, administered intraperitoneally (i.p.) to the animals, is 40 mg of tetrabenazine base per kg of animal body weight. The test compound is administered intraperitoneally (i.p.) or orally to the subject animals, and the tetrabenazine solution is administered 30 minutes or 60 minutes, respectively, thereafter. Tetrabenazine solution and the solvent used to dissolve, or suspend, the test compounds are administered by the same route and at the same intervals as the test compounds to a control group. […] The vehicle-control group score is used as a determination of the validity of each test. The results are discarded and the test is repeated, if the control score is determined to be less than 17. […] A linear-regression analysis is used to estimate ED50 values and 95% confidence limits.

CN1c2ccncc2N(C=O)Cc2cccn21.O=C(O)/C=C\C(=O)O [11-Formyl-10,11-dihydro-5-methyl-5H-pyrido[3,4-f]pyrrolo[1,2-b][1,2,5]triazepine maleate]
% Inhibition of Writhing at a Screening Dose of 20 mg/kg, s.c. [1]: 47%

CC(=O)Oc1ccccc1C(=O)O [Aspirin, reference compound]
ED50 [2]: 110 mg/kg

CNC(=O)Oc1ccc2c(c1)[C@]1(C)CCN(C)[C@@H]1N2C [physostigmine, reference compound]
% of Animals With Scopolamine Induced Memory Deficit Reversed ([3]; 0.31 mg/kg s.c.): 20%

CNC(=O)N1Cc2cccn2N(C)c2ccncc21.O=C(O)/C=C\C(=O)O [10,11-Dihydro-5-methyl-11-methylcarbamyl-5H-pyrido[3,4-f]pyrrolo[1,2-b][1,2,5]triazepine maleate]
% Inhibition of Writhing at a Screening Dose of 20 mg/kg, s.c. [1]: 44%

CN1CCC(C2Nc3cnccc3N(C)n3cccc32)CC1 (centres unmarked) [10,11-Dihydro-5-methyl-10-[(1-methyl)piperidin-4-yl]-5H-pyrido[3,4-f]pyrrolo[1,2-b][1,2,5]triazepine]
ED50 ([2]; rats, p.o., daily for 21 days, dose for 50% inhibition of adjuvant induced inflammation, non-injected paw): 53.7 mg/kg
ED50 [4]: 15.7 mg/kg

CN(C)CCC=C1c2ccccc2CCc2ccccc21 [amitryptyline, reference compound]
ED50 [4]: 1.5 mg/kg

CN1c2ccncc2NC(c2ccccc2)c2cccn21 (centres unmarked) [10,11-dihydro-5-methyl-10-phenyl-5H-pyrido[3,4-f]pyrrolo[1,2-b][1,2,5]triazepine]
% Inhibition of Writhing at a Screening Dose of 20 mg/kg, s.c. [1]: 47%

CC1Nc2cnccc2N(C)n2cccc21 (centres unmarked) [10,11-Dihydro-5,10-dimethyl-5H-pyrido[3,4-f]pyrrolo[1,2-b][1,2,5]triazepine]
% of Animals With Scopolamine Induced Memory Deficit Reversed ([3]; 2.5 mg/kg s.c.): 33%
inhibition of ptosis ([4]; at a dose of 10 mg/kg i.p.): 47%

CN1c2ccncc2NCc2cccn21 [10,11-Dihydro-5-methyl-5H-pyrido[3,4-f]pyrrolo[1,2-b][1,2,5]triazepine]
% Inhibition of Writhing ([1]; at a dose of 12.6 mg/kg s.c. (footnote 1)): 50%

CC(C)=CCN1CCC2(C)c3cc(O)ccc3CC1C2C (centres unmarked) [Pentazocine, reference compound]
% Inhibition of Writhing ([1]; at a dose of 1.3 mg/kg s.c. (footnote 2)): 50%

CN(C)CCCC1Nc2cnccc2N(C)n2cccc21 (centres unmarked) [10,11-Dihydro-5-methyl-10-[3-(N,N-dimethylamino)propyl]-5H-pyrido[3,4-f]pyrrolo[1,2-b][1,2,5]triazepine]
% Inhibition of Writhing at a Screening Dose of 20 mg/kg, s.c. [1]: 57%
% of Animals With Scopolamine Induced Memory Deficit Reversed ([3]; 1.25 mg/kg s.c.): 27%
